Assay results reported in patent US11471442B2, “Administration of gut-selective JAK3 inhibitor” (THERAVANCE BIOPHARMA R&D IP, LLC, priority 2020, dated 2022).
Read-outs that look alike come from different tables or passages of the source.

Assays:
splenic NK cell counts = assay: Immunosuppression model in mice (splenic NK cell counts); format: in vivo; settings: same or higher doses than required for efficacy in the oxazolone model
Excerpt: Oxazolone-induced colitis is an experimental model that has a histological resemblance to human ulcerative colitis.

NK cells = assay: NK cell counts (immunophenotyping) in MAD cohorts; format: in vivo, human; settings: day 1 to day 10, MAD
Procedure: Immunophenotyping was conducted on NK Cells in part B only.

[1] = Phase 1 pharmacokinetics across all SAD and MAD cohorts; format: in vivo; settings: human, plasma, oral
Procedure: (§1) The plasma PK parameters of the compound of formula (I) calculated following single (Part A) or multiple (Parts B) oral doses.
(§2) For all subjects, blood samples for the determination of plasma concentration of the compound of formula (I) were collected at scheduled time points. Blood samples were analyzed to calculate different plasma PK parameters in both part A and part B.
(§3) For all PK data analyses, the PK analysis set was used. Individual subject and mean plasma drug concentration versus time curves for the compound of formula (I) were presented for each dose group. Summary statistics (mean, standard deviation, coefficient of variation, median, minimum, maximum, geometric mean, geometric coefficient of variation, number of subjects) were calculated for plasma concentrations at each time point for each dose group, and the PK parameters for each dose group. Urine PK parameters were summarized for exploratory purposes.

[2] = Phase 1 single ascending dose (SAD, Part A) safety and tolerability in healthy subjects; format: in vivo, human; settings: for Most frequent TEAEs: Apthous ulcer / Most frequent TEAEs: Back pain / Most frequent TEAEs: Diarrhea / Most frequent TEAEs: Headache / Most frequent TEAEs: Pain in extremity / Subjects with TEAEs: Any TEAE / Subjects with TEAEs: Moderate or severe TEAE / Subjects with TEAEs: Seriou TEAE / Subjects with TEAEs: TEAE leading to discontinuation / Total number of TEAEs: SAD, n = 6
Excerpt: This clinical study was the first in human study of a compound of formula (I). The purpose of this study was to assess the safety, tolerability and pharmacokinetics (PK) of the compound of formula (I) through single ascending dose administration (Part A) and multiple dose administrations (Part B) in healthy subjects.
The number and severity of treatment emergent adverse events (TEAE5) following single (Part A) or multiple (Parts B) oral doses of the compound of formula (I) and matching placebo, and changes in safety laboratory assessments, vital signs, and ECGs.
32 healthy, adult male and female subjects were enrolled in Part A. Four cohorts (A1 to A4) of 8 healthy subjects (6 active and 2 placebo) were evaluated.
(§4) In each cohort, healthy subjects meeting eligibility criteria were sequentially randomized in a 3:1 ratio to receive either the compound of formula (I) or matching placebo. Study drug was administered orally as a single dose on the morning of Day 1 following an overnight fast of at least 9.5 hours. Subjects were dosed in an upright (i.e., seated or standing) position and remained upright for 5 minutes following dosing prior to performing study procedures which require a posture change. Subjects were to remain fasted, except water, until after the 4-hour post-dose assessments were completed and the 4-hour post dose PK sample was collected. PK sampling for the compound of formula (I) in plasma and urine were taken Day 1 pre-dose and for 72 hours post-dose.
Safety was determined by evaluating physical examinations, vital signs, safety 12-lead electrocardiograms (ECGs) monitoring, clinical laboratory tests, and adverse events (AEs). For procedures scheduled to be performed at common times, collection of PK samples was collected as close as possible to the designated time. The cardiodynamic recordings via ECG extractions from the Holter monitor were conducted as close as possible prior to the corresponding PK sampling. Vital signs, followed by safety ECGs, were be taken before the PK sampling (or before the cardiodynamic sampling if scheduled at the same time), unless PK samples were late as a result in which case vital signs were taken following the PK sampling.
Safety analyses were performed using the Safety analysis set. Safety variables include vital signs, adverse events, clinical laboratory results (hematology, chemistry, coagulation, and urinalysis), and ECG parameters, such as Friderica's corrected QT interval (QTcF), PR interval, QT interval, QRS interval, and heart rate, from standard safety digital ECGs. Vital signs were summarized in terms of observed values and changes from baseline.

[3] = Phase 1 SAD (Part A) plasma and urine pharmacokinetics in healthy subjects; format: in vivo, human; settings: for AUC(0-inf) / Cmax / Tmax / half-life: human, plasma; for Tmax: read-out: Tmax, median (min, max); for half-life: read-out: t1/2, mean (SD) (converted)
Procedure: as §1, §4, §2
Urine samples for the determination of concentration of the compound of formula (I) were collected at various posedose intervals only in part A.
as §3

[4] = single oral dose 1000 mg, n = 6
[5] = single oral dose 2000 mg, n = 6

With `CN(C)C/C=C/C(=O)N1CC(COc2cc(-c3ccc(O)cc3)cc3[nH]ncc23)C1` [compound of formula (I)] the “splenic NK cell counts” value (splenic NK cell counts) was “unaffected”, the “changes in absolute or relative NK cell counts” value (NK cells) was “no apparent changes” and the half-life ([1]; across all doses in the SAD and MAD cohorts, read-out: mean terminal elimination half-life) was 15 to 20 h. For the same compound, the Cmax ([1]; across all doses, read-out: highest observed Cmax) was 34.3 ng/mL, the “serious AEs” value ([2]; SAD cohorts) was “No serious AEs” and the “severity of reported treatment-emergent AEs” value ([2]; SAD cohorts) was “mild”. For the same compound, the “AEs considered related to study drug (diarrhea, abdominal discomfort, and vomiting)” value ([2]; SAD cohorts, 2000 mg) was “Three”, the “changes from predose baseline in laboratory assessments (lipid, coagulation, hematology), vital signs or ECGs” value ([2]; SAD cohorts, any time point postdose) was “No clinically significant changes” and the “Most frequent TEAEs: Apthous ulcer” value ([2]; single oral dose 100 mg) was 1 (17). The “Most frequent TEAEs: Back pain” value ([2]; single oral dose 100 mg) was 1 (17), the “Most frequent TEAEs: Diarrhea” value ([2]; single oral dose 100 mg) was 0 and the “Most frequent TEAEs: Headache” value ([2]; single oral dose 100 mg) was 1 (17). For the same compound, the “Most frequent TEAEs: Pain in extremity” value ([2]; single oral dose 100 mg) was 3 (50), the “Subjects with TEAEs: Any TEAE” value ([2]; single oral dose 100 mg) was 4 (67) and the “Subjects with TEAEs: Moderate or severe TEAE” value ([2]; single oral dose 100 mg) was 0. For the same compound, the “Subjects with TEAEs: Seriou TEAE” value ([2]; single oral dose 100 mg) was 0, the “Subjects with TEAEs: TEAE leading to discontinuation” value (“Subjects with TEAEs: TEAE leading” for short) ([2]; single oral dose 100 mg) was 0 and the “Total number of TEAEs” value ([2]; single oral dose 100 mg) was 8. The “Most frequent TEAEs: Apthous ulcer” value ([2]; single oral dose 300 mg) was 0, the “Most frequent TEAEs: Back pain” value ([2]; single oral dose 300 mg) was 0 and the “Most frequent TEAEs: Diarrhea” value ([2]; single oral dose 300 mg) was 0. For the same compound, the “Most frequent TEAEs: Headache” value ([2]; single oral dose 300 mg) was 0, the “Most frequent TEAEs: Pain in extremity” value ([2]; single oral dose 300 mg) was 1 (17) and the “Subjects with TEAEs: Any TEAE” value ([2]; single oral dose 300 mg) was 2 (33). For the same compound, the “Subjects with TEAEs: Moderate or severe TEAE” value ([2]; single oral dose 300 mg) was 0, the “Subjects with TEAEs: Seriou TEAE” value ([2]; single oral dose 300 mg) was 0 and the “Subjects with TEAEs: TEAE leading” value ([2]; single oral dose 300 mg) was 0. For the same compound, the “Total number of TEAEs” value ([2]; single oral dose 300 mg) was 2, the “Most frequent TEAEs: Apthous ulcer” value ([2]; single oral dose 1000 mg) was 0 and the “Most frequent TEAEs: Back pain” value ([2]; single oral dose 1000 mg) was 1 (17). For the same compound, the “Most frequent TEAEs: Diarrhea” value ([2]; single oral dose 1000 mg) was 1 (17), the “Most frequent TEAEs: Headache” value ([2]; single oral dose 1000 mg) was 0 and the “Most frequent TEAEs: Pain in extremity” value ([2]; single oral dose 1000 mg) was 0. The “Subjects with TEAEs: Any TEAE” value ([2]; single oral dose 1000 mg) was 2 (33), the “Subjects with TEAEs: Moderate or severe TEAE” value ([2]; single oral dose 1000 mg) was 0 and the “Subjects with TEAEs: Seriou TEAE” value ([2]; single oral dose 1000 mg) was 0. The “Subjects with TEAEs: TEAE leading” value ([2]; single oral dose 1000 mg) was 0, the “Total number of TEAEs” value ([2]; single oral dose 1000 mg) was 6 and the “Most frequent TEAEs: Apthous ulcer” value ([2]; single oral dose 2000 mg) was 1 (17). For the same compound, the “Most frequent TEAEs: Back pain” value ([2]; single oral dose 2000 mg) was 0, the “Most frequent TEAEs: Diarrhea” value ([2]; single oral dose 2000 mg) was 1 (17) and the “Most frequent TEAEs: Headache” value ([2]; single oral dose 2000 mg) was 1 (17). For the same compound, the “Most frequent TEAEs: Pain in extremity” value ([2]; single oral dose 2000 mg) was 0, the “Subjects with TEAEs: Any TEAE” value ([2]; single oral dose 2000 mg) was 3 (50) and the “Subjects with TEAEs: Moderate or severe TEAE” value ([2]; single oral dose 2000 mg) was 0. The “Subjects with TEAEs: Seriou TEAE” value ([2]; single oral dose 2000 mg) was 0, the “Subjects with TEAEs: TEAE leading” value ([2]; single oral dose 2000 mg) was 0 and the “Total number of TEAEs” value ([2]; single oral dose 2000 mg) was 6. For the same compound, the tolerability ([2]; single dose up to 2000 mg) was “generally well-tolerated”, the “dose proportionality of exposure (AUC and Cmax)” value ([3]; across the studied single-dose range) was “slightly less than dose proportional” and the “Urinary excretion, average” value ([3]; all single-dose levels) was less than 0.1%. For the same compound, the AUC(0-inf) ([3]; both sexes, oral, part A (SAD), 100 to 2000 mg, read-out: AUC0-inf in the plasma of the subjects (range)) was 2.7 to 172 ng·h/mL, the AUC(0-inf) ([3]; both sexes, oral, part A (SAD), 100 to 2000 mg, read-out: average AUC0-inf) was 8.38 to 96 ng·h/mL and the Cmax ([3]; both sexes, oral, single dose of 2000 mg, read-out: average Cmax) was 10 ng/mL. For the same compound, the AUC(0-inf) ([3]; po, 100 mg, single oral dose 100 mg, n = 6, read-out: AUCinf, mean (SD)) was 8.4 ng·h/mL, the AUC(0-inf) ([3]; po, 300 mg, single oral dose 300 mg, n = 6, read-out: AUCinf, mean (SD)) was 24.6 ng·h/mL and the AUC(0-inf) ([3]; po, 1000 mg, single oral dose 1000 mg, one subject excluded, read-out: AUCinf, mean (SD)) was 47 ng·h/mL. The AUC(0-inf) ([3]; po, 2000 mg, single oral dose 2000 mg, n = 6, read-out: AUCinf, mean (SD)) was 96 ng·h/mL, the Cmax ([3]; single oral dose 100 mg, n = 6, read-out: Cmax, mean (SD)) was 1.3 ng/mL and the Tmax ([3]; single oral dose 100 mg, n = 6) was 1 h. The half-life ([3]; single oral dose 100 mg, n = 6) was 17.5 h, the Cmax ([3]; single oral dose 300 mg, n = 6, read-out: Cmax, mean (SD)) was 3.4 ng/mL and the Tmax ([3]; single oral dose 300 mg, n = 6) was 1 h. It also gave a half-life ([3]; single oral dose 300 mg, n = 6) of 14.5 h, a Cmax ([3]; single oral dose 1000 mg, n = 6, read-out: Cmax, mean (SD)) of 4.8 ng/mL and a Tmax [3, 4] of 1 h. It also gave a half-life ([3]; single oral dose 1000 mg, one subject excluded) of 16.6 h, a Cmax ([3]; single oral dose 2000 mg, n = 6, read-out: Cmax, mean (SD)) of 10.1 ng/mL and a Tmax [3, 5] of 2 h. The half-life [3, 5] was 16.6 h, the Plasma concentrations ([3]; single oral doses up to 2000 mg) was less than 35 ng/mL and the “fe0-72 (percentage of dose excreted in urine over 0 to 72 hours), mean (SD)” value ([3]; single oral dose 100 mg, n = 6) was 0.10 (0.051) %. The “fe0-72 (percentage of dose excreted in urine over 0 to 72 hours), mean (SD)” value ([3]; single oral dose 300 mg, n = 6) was 0.082 (0.025) %, the “fe0-72 (percentage of dose excreted in urine over 0 to 72 hours), mean (SD)” value [3, 4] was 0.056 (0.025) % and the “fe0-72 (percentage of dose excreted in urine over 0 to 72 hours), mean (SD)” value [3, 5] was 0.063 (0.028) %.
